Measured values as given in PubChem BioAssay (NCI).
Where “and” joins values, the source holds several entries; their conditions need not be identical. Identical values can stand only once.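 Five compound concentrations were applied to cells in 96-well plates for 48 hours; endpoints were derived by simple linear interpolation of the resulting dose-response curve. GI50 marks 50% less growth. TGI denotes the concentration required for complete inhibition of growth.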

Assays:
Assay in all cases: NCI tumour cell line growth inhibition, 48 h
HL-60(TB) leukemia = test system: HL-60(TB) leukemia
HOP-92 NSCLC = test system: HOP-92 NSCLC
HS 578T breast = test system: HS 578T breast
NCI-H460 lung = test system: NCI-H460 lung
NCI/ADR-RES ovarian = test system: NCI/ADR-RES ovarian
SK-MEL-2 melanoma = test system: SK-MEL-2 melanoma
SN12C renal = test system: SN12C renal
SNB-75 CNS = test system: SNB-75 CNS
UACC-62 melanoma = test system: UACC-62 melanoma
OVCAR-4 ovarian = test system: OVCAR-4 ovarian

Row | Compound | GI50 (HL-60(TB) leukemia) [µM] | TGI (HL-60(TB) leukemia) [µM] | GI50 (HOP-92 NSCLC) [µM] | TGI (HOP-92 NSCLC) [µM] | GI50 (HS 578T breast) [µM] | TGI (HS 578T breast) | GI50 (NCI-H460 lung) [µM] | TGI (NCI-H460 lung) [µM] | GI50 (NCI/ADR-RES ovarian) [µM] | TGI (NCI/ADR-RES ovarian) | GI50 (SK-MEL-2 melanoma) [µM] | TGI (SK-MEL-2 melanoma) | GI50 (SN12C renal) [µM] | TGI (SN12C renal) | GI50 (SNB-75 CNS) [µM] | TGI (SNB-75 CNS) [µM] | GI50 (UACC-62 melanoma) [µM] | TGI (UACC-62 melanoma) [µM] | GI50 (OVCAR-4 ovarian) [µM] | TGI (OVCAR-4 ovarian)
1 | COc1cc(-c2ccc[nH]2)[nH]c1/C=C1\N=C(C)C(C(=O)NC(C)C)=C1C | 2.4 | 10.3 | 2.22 | 6.05 | 2.84 | 10.5 µM | 2.44 | 12.7 | 4.24 | 16.5 µM | 2.45 | 5.49 µM | 10.7 | 24 µM | 4.94 | 17.2 | 2.68 | 6.77 |  | 
2 | CCCCCCC1CCCCN1C(c1ccccc1)C(O)c1ccccc1 (stereo not drawn) | 3.01 | 7.01 | 2.84 | 9.05 | 6.68 | 21.1 µM | 3.92 | 13.6 | 10.1 | 22.9 µM | 5.33 | 20.5 µM | 6.5 | 20.3 µM | 11.4 | 23.7 | 11.7 | 24.8 | 7.98 | 21.7 µM
3 | CN(C)CC(=O)N1CCc2c([nH]c3ccccc23)C1c1cccnc1 (stereo not drawn) |  | > 100 |  | > 100 | 94.1 | > 100 µM |  | > 100 | > 100 | > 100 µM | > 100 | > 100 µM |  | > 100 µM |  | > 100 |  | > 100 |  | > 100 µM
4 | CN1CCC(C(=O)Nc2n[nH]c3nnc(-c4ccccc4)cc23)CC1 | > 25 | > 25 | 11.3 | > 25 | 16.5 | > 25 µM | > 25 | > 25 | > 25 | > 25 µM | > 20.1 | > 25 µM | > 25 | > 25 µM | > 5.22 | > 25 | > 25 | > 25 | > 25 | > 25 µM
5 | COc1ccc2c(c1)CCC1C2CCC2(C)C(NC(=O)CCCCC3CCSS3)CCC12 (stereo not drawn) | 3.75 | > 100 | 4.16 | 63.4 | > 100 | > 100 µM | 4.84 | 93.3 | > 100 | > 100 µM | 53.5 | > 100 µM | 16.4 | > 100 µM | 18.2 | > 100 | 15 | > 100 | 23 | > 100 µM
6 | CC(C)OC(=O)c1cc(NC(=S)OC(C)C)ccc1Cl |  | > 31.6 |  | 46.4 |  | > 79.8 µM |  | > 55.3 |  | > 63.4 µM |  | 51.6 µM |  | 34.4 µM |  | 47.5 |  | 31.2 |  | > 56 µM
7 | CC1(C)N=C(N)N=C(N)N1c1ccc(CCCCCCc2ccc(S(=O)(=O)F)cc2)cc1 |  | > 37.3 |  | 3.15 |  | 30.5 µM |  | > 37.8 |  | 70.9 µM |  | 30.2 µM |  | 7.02 µM |  | 24.8 |  | 0.604 |  | > 100 µM
8 | COc1cc(C(=O)/C=C/c2c(C)n([O-])c3ccc(Cl)cc3[n+]2=O)cc(OC)c1OC | 5.76 | 23.5 | 4.47 | > 100 | 1.75 | 8.97 µM | 12.5 | 36.6 | 4.89 | 35.8 µM | 17 | 81.3 µM | 10.4 | > 100 µM | 5.18 | > 100 | 3.87 | 23.1 | 9.29 | > 100 µM
9 | O=C([CH-]C(=O)c1ccccc1)c1ccccc1.[CH2-]C.[CH2-]C.[Tl+3] | 2.99 | 21.6 | 21.6 | > 72.8 | 31.7 | > 100 µM | 10.8 | > 100 | 26.1 | > 100 µM | 31.6 | > 92.4 µM | 14.4 | > 100 µM | 25.2 | > 100 | 20.8 | 87.6 | 16.8 | > 100 µM
10 | COc1ccc(-c2nn(-c3cccc(Cl)c3)cc2-c2c(C#N)c(=O)n3[nH]c(-c4ccc(C)o4)nc3c2C#N)cc1 | 4.88 | 23.5 | 0.463 | 3.44 | 2.95 | > 50 µM | 6.38 | > 50 | > 50 | > 50 µM | 6.57 | 18.1 µM | 5.3 | > 50 µM | 1.56 | > 50 | 6.46 | 42.7 | 6.59 | > 50 µM
11 | c1ccc2[nH]c(-c3cscn3)nc2c1 |  | > 100 |  | > 100 |  | > 100 µM |  | > 100 |  | > 100 µM |  | > 100 µM |  | > 100 µM |  | > 100 |  | > 100 |  | > 100 µM
12 | Nc1nc2c([nH]1)c1[nH]c3ccccc3c1c1[nH]c3ccccc3c21 | 18.4 | 38.1 | 9.12 | 22.2 | 20.4 | 53.9 µM |  |  | 18.9 | 45.1 µM | 16.2 | 32.4 µM | 15.3 | 29.7 µM | 11.9 | 25.1 | 15.9 | 30 | 15.4 | 35.3 µM
13 | NCC[PH+](c1ccccc1)c1ccccc1.NCC[PH+](c1ccccc1)c1ccccc1.[Cl-].[Pt+4] | 1.8 | > 57.8 | > 100 | > 100 | 99.6 | > 100 µM | 84.5 | > 100 | > 100 | > 100 µM | > 100 | > 100 µM | > 100 | > 100 µM | > 100 | > 100 | > 86.5 | > 100 | > 100 | > 100 µM
14 | Cn1cc(C2=C(c3cccc([N+](=O)[O-])c3)C(=O)NC2=O)c2ccccc21 | 7.14 | 19.1 | 4.22 | > 20.6 | 2.14 | > 25 µM | 8.52 | > 25 | 5.66 | > 23.1 µM | 5.24 | 17.2 µM | 9.61 | > 25 µM | 0.14 | > 25 | 6.58 | 18.1 | 6.06 | > 25 µM
15 | O=C(/C=C/c1ccccn1)c1ccccc1 | 1.88 | 6.75 | 10.4 | 23.6 | 12.5 | 39.4 µM | 4.44 | 18.1 | 3.01 | 12.1 µM | 8.32 | 21 µM | 4.33 | 17.1 µM | 5.57 | 21 | 2.33 | 7 | 5.06 | 18.3 µM
16 | O=[N+]([O-])/C(=C/C=C/c1ccccc1)c1ccccc1 | 1.09 | 3.55 | 1.54 | 3.8 | 2.86 | 8.41 µM | 3.3 | 11.3 | 3.56 | 11.9 µM | 1.67 | 3.93 µM | 1.85 | 4.03 µM | 2.22 | 7.27 | 1.55 | 3.1 | 2.47 | 7.22 µM
17 | COc1ccc2cc1Oc1ccc(cc1)CC1c3c(cc(OC)c4c3Oc3cc5c(cc3O4)CCNC5C2)CCN1C (stereo not drawn) |  | 3.67 |  | 6.76 | 1.98 | 4.71 µM and 4.59 µM | 1.62 | 3.25 | 1.55 | 3.62 µM and 3.19 µM | 2.19 | 3.49 µM and 3.85 µM | 1.82 | 3.89 µM and 3.3 µM | 1.68 | 3.06 |  | 3.43 | 1.61 | 6.16 µM and 3.13 µM
18 | Cc1nc2sc(C(=O)Nc3cccc(Cl)c3)c(N)c2cc1C(O)c1ccccc1 (stereo not drawn) | 0.401 | 6.67 | 10.4 | 31.3 | 0.351 | 4.89 µM | 0.379 | 1.85 | 0.929 | 13.1 µM | 2.43 | 26.5 µM | 0.976 | 13.6 µM | 0.243 | 12.3 | 0.757 | 16 | 4.64 | 31.2 µM
19 | OCCN1CCCN(CCCN2c3ccccc3Sc3ccc(C(F)(F)F)cc32)CC1 | 1.91 | 3.74 | 1.73 | 7.63 | 2.04 | 5.89 µM | 1.95 | 3.77 | 3.57 | 14.7 µM | 2.07 | 4.08 µM | 4.5 | 18.5 µM | 1.21 | 8.51 |  |  | 3.11 | 13.4 µM
20 | CCCC/C=C1/CCC(CN(C)C)C1=O (stereo not drawn) |  | 4.63 |  | 3.83 |  | 15 µM | 9.87 | 26.8 |  | 15 µM |  | 10.1 µM |  | 3.63 µM |  | 6.99 |  | 4.96 |  | 8.27 µM
21 | COc1ccc([C@H]2c3[nH]c4ccccc4c3C[C@H]3C(=O)N(CCCCCCC(=O)NO)CC(=O)N23)cc1 | 1.19 | > 33.3 | 1.38 | 24.2 | 1.34 | > 33.3 µM | 2.76 | > 33.3 | 4.26 | > 33.3 µM | 2.79 | > 33.3 µM | 4.19 | > 33.3 µM | 1.12 | > 33.3 | 0.705 | 3.97 | 12.4 | > 33.3 µM
22 | COc1cc(C(=O)Nc2ccc(-c3nc4ccccc4[nH]3)cc2)cc(OC)c1OC | 17.8 | 56.4 | 6.41 | 24.2 | 3.54 | 19.3 µM | 5.74 | 22.7 | 13 | 73.4 µM | 14.5 | 29.5 µM | 10.3 | 25.5 µM | 10.9 | 24.6 | 9.89 | 24.4 | 11.8 | 36.9 µM
23 | COC(=O)c1sc(=S)c2sc(C(=O)OC)c(C(=O)OC)c2c1C(=O)OC | 21.9 | 62.3 | 24.3 | > 100 | 46.5 | > 100 µM | 44.3 | > 100 | 35.4 | > 100 µM | 38.7 | > 100 µM | 30.7 | > 100 µM | 52 | > 100 | 36 | > 100 | 82.2 | > 100 µM
24 | O=C(NCCNC1=CC(=O)c2nc3ccccc3c3ccnc1c23)c1cnccn1 | 42.8 | > 100 | 16.1 | > 100 | 32.7 | > 100 µM | 18.4 | > 100 | 96.6 | > 100 µM | 60.5 | > 100 µM | 49.5 | > 100 µM | > 100 | > 100 | 73.7 | > 100 | 83.7 | > 100 µM
25 | COc1cc(/C=C/C(=O)/C=C/c2ccc(-n3ccnc3)cc2)ccc1O | 3.29 | 22.4 | 10.5 | 27.1 | 2.91 | > 100 µM | 14.1 | 34.9 | 15.9 | > 100 µM | 20.8 | 55.8 µM | 2.41 | 7.53 µM | 9.96 | > 100 | 5.01 | 30.2 | 8.38 | 35.5 µM
26 | COc1ccc(C2=NOC3=c4ccccc4=CSC3=C2c2ccccc2)cc1 | 39.7 | > 100 | 23.6 | 83.2 | 47.4 | > 100 µM | 21.5 | 89 | 41.7 | > 100 µM | 75.3 | > 100 µM | 22 | 68.9 µM | > 100 | > 100 | 22 | 85 | 49.7 | > 100 µM
27 | COc1ccccc1CNCCCN1C(=O)c2ccc3c4c(ccc(c24)C1=O)C(=O)N(CCCNCCCCN)C3=O | 0.229 | 0.527 | 0.4 | 1.65 | 1.14 | 5.91 µM | 0.313 | 1 | 3.58 | 22.8 µM | 0.233 | 0.49 µM |  |  | 0.344 | 1.67 | 0.237 | 0.674 | 0.165 | 0.319 µM
